Source: article PMC11292009, “Mapping protein binding sites by photoreactive fragment pharmacophores” (Communications Chemistry, 2024)
Several values for one entry are separate records, joined by “and”; a condition that tells them apart may be missing. Equal entries are not always repeated.

Tests used:
[1] = system: carbonic anhydrase II (CA); assay: Intact protein MS photoaffinity labeling screen, carbonic anhydrase; assay type: binding; settings: intact protein MS after 10 min irradiation
Outline: (§1)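 Fragments tested one per well, each incubated 15 min with protein to form non-covalent complexes before photo-crosslinking. Labeling read directly by intact protein MS as mass additions matching fragment adducts, expressed as labeling %.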

BRD4-BD1 = system: T1, BRD4-BD1; assay: Intact MS photoaffinity labeling screen, BRD4-BD1 (302 nm, LCMS-TOF); assay type: binding; settings: for MS labeling percentage, BRD4: BRD4-BD1, 302 nm 10 min
T1 construct: screened the PhP library against the first bromodomain of BRD4 (BRD4-BD1); purchased GSK/GenScript
Outline: (§2)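 Labeling detected as mass additions in deconvoluted intact-protein LCMS-TOF spectra. Protein at 1 μM in PBS was first mixed with one fragment per well on ice for 15 min, followed by 10 min UV exposure at 302 nm.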

KRas^G12D = system: T2, KRas^G12D; assay: Intact MS photoaffinity labeling screen, KRas G12D (302 nm, LCMS-TOF); assay type: binding; settings: for MS labeling percentage, KRas: KRas G12D, 302 nm 10 min
T2 construct: purchased GSK/GenScript
Outline: as §2

lysozyme (Lyo) = assay: Intact protein MS photoaffinity labeling screen, lysozyme; assay type: binding; settings: intact protein MS after 10 min irradiation
Outline: as §1

myoglobin (Myo) = assay: Intact protein MS photoaffinity labeling screen, myoglobin; assay type: binding; settings: intact protein MS after 10 min irradiation
Outline: as §1

STAT5B-NTD [2] = system: T3, STAT5B-NTD; assay: Intact MS photoaffinity labeling screen, STAT5B-NTD (365 nm, UHPLC-MS); assay type: binding; settings: for MS labeling percentage, STAT5B: STAT5B-NTD, 365 nm 10 min, no photocatalyst;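 on MS labeling percentage, STAT5B: 0.17 µL of 100 mM DMSO fragment stock added to the protein sample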
T3 construct: His-SUMO (N, cleaved yes); made in house; host or cells: E. coli BL21 RILP
Outline: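 UV irradiation at 365 nm for 10 min at 4 °C. Labeling read by intact-protein UHPLC-MS, positive ion mode, m/z 100–2000.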

STAT5B-NTD [3] = system: T3, STAT5B-NTD; assay: Intact MS labeling screen, STAT5B-NTD conjugated with photocatalyst Ir-G2-PEG3-COOH (450 nm); assay type: binding; settings: 450 nm 10 min;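 further: 0.14 µL of 100 mM DMSO fragment stock added to the conjugate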
Outline: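 Ir-G2-PEG3-COOH photocatalyst (10 eq) activated 30 min with EDC/NHS/BOP, then conjugated to STAT5B-NTD (7 µM) overnight at RT or 1 h at 37 °C in dark. PhP added, 1 h dark, then 450 nm irradiation 10 min at 4 °C; labeling read by intact LC-MS, positive ion mode, m/z 100–2000.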

[4] = system: T4, Kras G12D protein / SOS1 exchange domain; assay: Kras-SOS exchange assay (MANT-GDP); assay type: biochemical
T4 construct: Cytoskeleton, Inc. (SOS1 exchange domain only) GE02
Description: MANT-GDP loading assay: Kras^G12D protein was first buffer exchanged into low magnesium buffer (20 mM HEPES-NaOH (pH 7.5), 50 mM NaCl, 0.5 mM MgCl2) using a NAP5 column (catalog no.: 17-0583-1, Cytiva). The proteins were then incubated with 20-fold molar excess of N-methylanthraniloyl (MANT)-GDP (catalog no.: 69244, Sigma-Aldrich) in loading buffer (50 mM NaCl, 20 mM HEPES-NaOH [pH 7.5], 0.5 mM MgCl2, 10 mM EDTA, and 1 mM Dithiothreitol (DTT)) in a total volume of 200 μL at 20 °C for 90 min. The reaction was stopped by adding MgCl2 to a final concentration of 10 mM, then incubated at 20 °C for 30 min. The unbound MANT-GDP was removed using the NAP-5 column equilibrated with nucleotide exchange buffer (40 mM HEPES-NaOH (pH 7.5), 50 mM NaCl, 10 mM MgCl2, 2 mM DTT).
MANT-GDP exchange assay: First the MANT-GDP bound Kras G12D protein (in a final 1 μM molar concentration) was preincubated with the inhibitor molecules for 60 min. After the preincubation the samples were exposed to UV light for 10 min with a wavelength of 366 nm. The UV-treated MANT-GDP Kras-inhibitor mix was loaded into a black 384 well microplate. The nucleotide exchange reaction was initiated by adding 100 fold molar excess of GppNHp (catalog no.: G0635, Sigma-Aldrich), a non-hydrolyzable GTP analog and the SOS1 exchange domain (catalog no.: GE02, Cytoskeleton, Inc.) protein in 0.5 μM final concentration. The change in fluorescence intensity was measured every 30 s in room temperature for 60 min on an EnSpire plate reader (PerkinElmer, Inc.). The measured fluorescence values were fitted to a single exponential function by using GraphPad Prism 8 software.

[5] = system: CA, Lyo, Myo, BRD4-BD1, KRas G12D, STAT5B-NTD; assay: Intact MS labeling compared over all protein targets; assay type: binding; settings: for Labeling of the other protein targets (vs. preferred target): each of the other targets
Description: Using a plate-based format with one fragment per well, each fragment was incubated with the target proteins for 15 min to allow for the formation of non-covalent interactions. The plate was then irradiated at 302 or 365 nm for 10 min to enable the bound fragments to crosslink to the protein[26]. Finally, the results were directly analyzed from the plate using intact protein mass spectrometry by observing the mass additions that correspond to successful labeling (Fig. 2c, for labeling % values see Supplementary data). The library was first characterized against three benchmark proteins like carbonic anhydrase (CA), lysozyme (Lyo), and myoglobin (Myo).
The PhP library was screened against BRD4-BD1 and KRas^G12D as follows. Using a Labcyte Echo® 555 Liquid Handler, 150 nL of fragment solution (20 mM) was transferred into a Greiner 384 low-volume plate (white) to prepare the probe plate. The probe plate was placed on ice. 15 μL of protein stock solution (1 μM BRD4-BD1 (GSK/GenScript) or KRas^G12D (GSK/GenScript) in PBS buffer) was dispensed into wells containing fragments. The plate was left on ice for 15 min for incubation, then irradiated at 302 nm for 10 min, and centrifuged (1000 rpm, 1 min) to remove any bubbles. The plate was then analyzed by LCMS-TOF mass spectrometry (Agilent 1200 series liquid chromatography with Agilent Bio-HPLC PLRP-S (1000 Å, 5 µm × 50 mm × 1.0 mm, PL1312-1502) reverse phase HPLC column at 70 °C equipped with an Agilent G6224 time-of-flight (ToF), see Supplementary Note 2 for the full protocols). The deconvoluted spectra were analyzed using R Studio software.
During the analysis, the column temperature was maintained at a constant 60 °C, and a sample volume of 3 µL was injected for each analysis. Data acquisition was conducted in positive ion mode within the m/z 100–2000 (mass-to-charge ratio) range. For the full protocol and spectra of the hits, see Supplementary Note 2.

[6] = sheet PhP, experimental hit status flag given as 0 or 1
[7] = PhP library sheet "PhP", binary flag printed as 0 or 1, key not given
[8] = hit status flag, 1 = hit, 0 = no hit

SMILES: CC1(CCC(=O)Nc2ccc(-c3ncccc3O)cc2)N=N1 [PhP060, N1=NC1(C)CCC(=O)Nc2ccc(cc2)-c3ncccc3O]
- MS labeling percentage, CA [1]: 17.3%
- BRD4-BD1 (experimental hit status) (BRD4-BD1; [6]): 0
- MS labeling percentage, KRas (KRas^G12D): 13.7%
- KRAS-G12D (experimental hit status) (KRas^G12D; [6]): 1
- MS labeling percentage, Lyo (lysozyme (Lyo)): 16.1%
- MS labeling percentage, Myo (myoglobin (Myo)): 24.9%
- MS labeling percentage, STAT5B (STAT5B-NTD [2]): 0%
- STAT5B-NTD (experimental hit status) (STAT5B-NTD [2]; [6]): 0
- MS labeling percentage, STAT5B+photocat (STAT5B-NTD [3]): 8.8%
- Effect on SOS1-mediated nucleotide exchange of KRas ([4]; prior to irradiation): no effect
- Effect on SOS1-mediated nucleotide exchange of KRas ([4]; upon irradiation (366 nm, 10 min)): no effect
- Number of proteins labeled ([5]; of the six protein targets): four

SMILES: CCCc1nn(C)c(C(N)=O)c1NC(=O)CCC1(C)N=N1 [PhP082, CCCc1nn(C)c(C(=O)N)c1NC(=O)CCC2(C)N=N2]
- MS labeling percentage, CA [1]: 0%
- MS labeling percentage, BRD4 (BRD4-BD1): 0.2%
- BRD4-BD1 (experimental hit status) (BRD4-BD1; [7]): 0
- MS labeling percentage, KRas (KRas^G12D): 0%
- KRAS-G12D (experimental hit status) (KRas^G12D; [7]): 0
- MS labeling percentage, Lyo (lysozyme (Lyo)): 0%
- MS labeling percentage, Myo (myoglobin (Myo)): 52.9%
- STAT5B-NTD (experimental hit status) (STAT5B-NTD [2]; [7]): 0
- MS labeling percentage, STAT5B (STAT5B-NTD [2]): 0%
- MS labeling percentage, STAT5B+photocat (STAT5B-NTD [3]): 2.4%
- Labeling of the other protein targets (vs. preferred target) [5]: > 0.5% and < 0.5%

SMILES: COc1ccc(NS(=O)(=O)c2cccc(NC(=O)CCC3(C)N=N3)c2)cc1 [PhP087, COc1ccc(cc1)NS(=O)(=O)c2cccc(c2)NC(=O)CCC3(C)N=N3]
- MS labeling percentage, CA [1]: 18.9%
- MS labeling percentage, BRD4 (BRD4-BD1): 0.7%
- BRD4-BD1 (experimental hit status) (BRD4-BD1; [7]): 0
- MS labeling percentage, KRas (KRas^G12D): 12.6%
- KRAS-G12D (experimental hit status) (KRas^G12D; [7]): 0
- MS labeling percentage, Lyo (lysozyme (Lyo)): 1.5%
- MS labeling percentage, Myo (myoglobin (Myo)): 3.2%
- STAT5B-NTD (experimental hit status) (STAT5B-NTD [2]; [7]): 0
- MS labeling percentage, STAT5B (STAT5B-NTD [2]): 2.9%
- MS labeling percentage, STAT5B+photocat (STAT5B-NTD [3]): 8%
- Number of targets labeled in higher than 10% amount ([5]; of the six protein targets): two

SMILES: CC1(CCC(=O)NCc2ccc(-c3ccc(O)cc3)cc2)N=N1 [PhP088, N1=NC1(C)CCC(=O)NCc2ccc(cc2)-c3ccc(O)cc3]
- MS labeling percentage, CA [1]: 0%
- MS labeling percentage, BRD4 (BRD4-BD1): 0.5%
- BRD4-BD1 (experimental hit status) (BRD4-BD1; [7]): 0
- MS labeling percentage, KRas (KRas^G12D): 0.2%
- KRAS-G12D (experimental hit status) (KRas^G12D; [7]): 0
- MS labeling percentage, Lyo (lysozyme (Lyo)): 4.8%
- MS labeling percentage, Myo (myoglobin (Myo)): 0.2%
- STAT5B-NTD (experimental hit status) (STAT5B-NTD [2]; [7]): 0
- MS labeling percentage, STAT5B (STAT5B-NTD [2]): 0%
- MS labeling percentage, STAT5B+photocat (STAT5B-NTD [3]): 5.7%
- Labeling of the other protein targets (vs. preferred target) [5]: > 1% and < 1%

SMILES: Cc1nc(CCNC(=O)CCC2(C)N=N2)sc1C [PhP092, Cc1nc(sc1C)CCNC(=O)CCC2(C)N=N2]
- MS labeling percentage, CA [1]: 0.3%
- MS labeling percentage, BRD4 (BRD4-BD1): 0.5%
- BRD4-BD1 (experimental hit status) (BRD4-BD1; [7]): 0
- MS labeling percentage, KRas (KRas^G12D): 0.1%
- KRAS-G12D (experimental hit status) (KRas^G12D; [7]): 0
- MS labeling percentage, Lyo (lysozyme (Lyo)): 35.6%
- MS labeling percentage, Myo (myoglobin (Myo)): 0.1%
- STAT5B-NTD (experimental hit status) (STAT5B-NTD [2]; [7]): 0
- MS labeling percentage, STAT5B (STAT5B-NTD [2]): 0%
- MS labeling percentage, STAT5B+photocat (STAT5B-NTD [3]): 0.8%
- Labeling of the other protein targets (vs. preferred target) [5]: > 1% and < 1%

SMILES: COc1ccc(-c2cnc(CNC(=O)CCC3(C)N=N3)[nH]2)cc1 [PhP098, COc1ccc(cc1)-c2cnc([nH]2)CNC(=O)CCC3(C)N=N3]
- MS labeling percentage, CA [1]: 1.6%
- MS labeling percentage, BRD4 (BRD4-BD1): 4.3%
- BRD4-BD1 (experimental hit status) (BRD4-BD1; [8]): 0
- MS labeling percentage, KRas (KRas^G12D): 9.6%
- KRAS-G12D (experimental hit status) (KRas^G12D; [8]): 0
- MS labeling percentage, Lyo (lysozyme (Lyo)): 0.5%
- MS labeling percentage, Myo (myoglobin (Myo)): 2.3%
- MS labeling percentage, STAT5B (STAT5B-NTD [2]): 1.4%
- STAT5B-NTD (experimental hit status) (STAT5B-NTD [2]; [8]): 0
- MS labeling percentage, STAT5B+photocat (STAT5B-NTD [3]): 3.1%
- Labeling efficiency over all protein targets (mean ± spread) [5]: 3.3 ± 3.1%

SMILES: CC1(CCC(=O)NCc2ccc(CNC(=O)OC(C)(C)C)cc2)N=N1 [PhP099, CC(C)(C)OC(=O)NCc1ccc(cc1)CNC(=O)CCC2(C)N=N2]
- MS labeling percentage, CA [1]: 12.8%
- MS labeling percentage, BRD4 (BRD4-BD1): 1.1%
- BRD4-BD1 (experimental hit status) (BRD4-BD1; [8]): 0
- MS labeling percentage, KRas (KRas^G12D): 7.7%
- KRAS-G12D (experimental hit status) (KRas^G12D; [8]): 0
- MS labeling percentage, Lyo (lysozyme (Lyo)): 2.2%
- MS labeling percentage, Myo (myoglobin (Myo)): 4.3%
- MS labeling percentage, STAT5B (STAT5B-NTD [2]): 2.9%
- STAT5B-NTD (experimental hit status) (STAT5B-NTD [2]; [8]): 0
- MS labeling percentage, STAT5B+photocat (STAT5B-NTD [3]): 19.3%
- Labeling efficiency over all protein targets (mean ± spread) [5]: 5.2 ± 4%
